Converted amounts (≈) assume the structure as drawn.
Columns and labels:
[1] = %T>MIC in gram negative bacteria-infected neutropenic mouse model; type: functional
Staphylococcus [2] = assay: Antibacterial activity against Staphylococcus infected in human; type: functional
[3] = %T>MIC in rabbit endocarditis model at 20 mg/kg, im administered as single dose measured after 12 hrs; type: functional; settings: route intramuscular
[4] = %T>MIC human infected with Staphylococcus at 600 mg. im administered every 12 hrs; settings: route intramuscular
[5] = %T>MIC in Streptococcus pneumoniae-infected neutropenic mouse model; type: functional
[6] = %T>MIC in Staphylococcus aureus-infected neutropenic mouse model; type: functional
[7] = %T>MIC in rabbit endocarditis model at 20 mg/kg, im administered as single dose measured after 8 hrs; type: functional; settings: route intramuscular
Staphylococcus [8] = assay: Antibacterial activity against Staphylococcus; type: functional
Streptococcus pneumoniae = assay: Antibacterial activity against Streptococcus pneumoniae; type: functional

For CCO/N=C(\C(=O)N[C@@H]1C(=O)N2C(C(=O)[O-])=C(Sc3nc(-c4cc[n+](C)cc4)cs3)CS[C@H]12)c1nsc(NP(=O)(O)O)n1 [CEFTAROLINE FOSAMIL], the “fT>MIC” value [1] was 32%, the MIC (Staphylococcus [2]) was 0.12 µg/mL (≈ 0.175 µM) and the “fT>MIC” value [3] was 30.9%. The “fT>MIC” value [4] was 64.65%, the “fT>MIC” value [5] was 39% and the “fT>MIC” value [6] was 26%. For the same compound, the “fT>MIC” value [7] was 46.3%, the MIC90 (Staphylococcus [8]) was ≤ 2 µg/mL and the MIC90 (Streptococcus pneumoniae) was ≤ 2 µg/mL.

Source: ChEMBL document CHEMBL1212792, “Comparative pharmacokinetics of ceftaroline in rats, rabbits, and monkeys following a single intravenous or intramuscular injection” (Antimicrob Agents Chemother, 2010)
